Source: patent EP0015584A2, “Nucleotides, methods for their preparation and medicaments” (Gauri, Kailash Kumar, Dr. Prof., priority 1979, dated 1980)

Assays:
resistente Herpesviren = assay: Local treatment of herpes keratitis produced with resistant strains; format: in vivo; conditions: Kaninchen, lokal, bis zu 7 mal täglich, bis zu 11 Tage; JDU-MP 0,1 bis 1 %, ÄDU-MP 0,1 bis 8 %, TFT-MP 0,1 bis 2 %, ARA-A-MP 0,2 bis 2 %, Acycloguanosin-Monophosphat 0,5 bis 5 %
Experimental: Man züchtet Herpes-Viren in Gewebekulturen von menschlichen Fibroblastzellen über 1 bis 5 Passagen in Gegenwart von Nukleosiden, wie beispielsweise ÄDU (Äthyldesoxyuridin), Konzentration: 20 µg/ml, TFT (Trifluorthymidin) Konzentration 5 bis 10 µg/ml, ARA-A-MP (Arabinofuranosyladenin-Monophosphat),Konzentration 20 µg/ml, Acycloguanosin (ACG), Konzentration 5 bis 30 µg/ml, wobei der Saatvirus auf die Cornea der Tiere (Hamster, Kaninchen) durch Aufträufeln übertragen wird. Zwei Stunden nach der Übertragung erfolgt die Behandlung der Cornea lokal mit den entsprechenden Nukleosiden in den oben angegebenen Konzentrationen. Dabei zeigt sich, daß die Viren für die Nukleoside resistent werden. Die Bewertung der Infektion erfolgt durch Anfärben der Hornhaut mit Fluorescin-Na-Lösung (1 %) und anschließende Farbphotodokumentation.
Die Behandlung der Herpes-Keratitis bei Kaninchen, erzeugt mit den resistenten Stämmen, erfolgt lokal mit folgenden Wirkstoffen: JDU-MP (Joddesoxyuridin-Monophosphat), Konzentration 0,1 bis 1 %, ÄDU-MP (Äthyldesoxyuridin-Monophosphat), Konzentration: 0,1 bis 8 %, TFT-MP (Trifluor- thymidin-Monophosphat), Konzentration: 0,1 bis 2 %, ARA-A-MP (Arabinofuranosyladenin-Monophosphat), Konzentration: 0,2 bis 2 %, Acycloguanosin-Monophosphat, Konzentration: 0,5 bis 5 %, bis zu 7 mal täglich für die Dauer von bis zu 11 Tagen.

Herpes-Simplex-Viren = assay: Inhibition of herpes simplex virus replication in tissue cultures of chick embryo fibroblasts; format: cell-based; conditions: Gewebekulturen von Hühnerembryofibroblasten; Konzentration 10 µg/ml
Experimental: Dem «-XDU-Monophosphat kommt eine ungewöhnliche Eigenschaft zu, die vom Fachmann nicht vorhersehbar war. Es ist nämlich in der Lage, die Vermehrung von Herpes-Simplex-Viren zu hemmen. In Gewebekulturen von HUhnerembryofibroblasten hemmt α-ÄDU-MP in einer Konzentration von 10 µg/ml deutlich die Virusvermehrung. Unter gleicher Bedingung ist α-ÄDU selbst ohne Wirkung.

DNS = assay: Incorporation into DNA (stated property, no method described); conditions: acts virostatically; no test described

Compound	Bekämpfung der durch resistente Herpesviren verursachten Infektion (Herpes-Keratitis) (resistente Herpesviren)	Hemmung der Virusvermehrung (Herpes-Simplex-Viren)	Einbau in die DNS (DNS)
Nc1nc2c(ncn2COCCOP(=O)(O)O)c(=O)[nH]1 [Acycloguanosin-Monophosphat]	wirksam bekämpfen		
O=c1[nH]c(=O)n([C@H]2C[C@H](O)[C@@H](COP(=O)(O)O)O2)cc1I [JDU-MP, Joddesoxyuridin-Monophosphat]	wirksam bekämpfen		
O=c1[nH]c(=O)n([C@H]2C[C@H](O)[C@@H](COP(=O)(O)O)O2)cc1C(F)(F)F [TFT-MP, Trifluor- thymidin-Monophosphat]	wirksam bekämpfen		
CCc1cn([C@H]2C[C@H](O)[C@@H](COP(=O)(O)O)O2)c(=O)[nH]c1=O [ÄDU-MP, Äthyldesoxyuridin-Monophosphat]	wirksam bekämpfen		
CCc1cn([C@@H]2C[C@H](O)[C@@H](CO)O2)c(=O)[nH]c1=O [α-ÄDU, α-5-Äthyl-2'-deoxyuridin, reference compound]		ohne Wirkung	
CCc1cn([C@@H]2C[C@H](O)[C@@H](COP(=O)(O)O)O2)c(=O)[nH]c1=O [α-ÄDU-MP, α-5-Äthyl-2'-deoxyuridin-5'-monophosphat]		deutlich	ohne in die DNS eingebaut zu werden
